From patent US9255110B2 (Hoffmann-La Roche Inc., priority 2010, dated 2016) come the findings set out here.

pIC50: −log10 of the molar value. Structures can show the parent of a compound that is named as a salt.

One experiment addresses IRAK-1 (Homo sapiens (Human), UniProt P51617). Kind of experiment: In vitro IRAK-1 kinase assay. It counts as biochemical. As to conditions: purified recombinant IRAK-1, 50 uM ATP, 33P peptide phosphorylation. As for the experimental part: Purified recombinant IRAK-4 protein was incubated with 250 uM synthetic peptide ([…]) in 30 ul of kinase buffer including (20 mM MOPS pH7.2, 25 mM beta glycerol phosphate, 5 mM EGTA, 1 mM sodium orthovanadate, 1 mM DTT, 50 uM ATP, 20 mM MgCl2, 10 uCi γ-^33P, 0.1% BSA) for the indicated time. For purified recombinant IRAK-1 protein kinase assay, 50 uM ATP was used. A 25 ul aliquot of the reaction mixture was transferred on to p81 phosphocellulose squares (Upstate Biotechnology, Lake Placid, N.Y.). The assay squares were washed three times with 0.75% phosphoric acid and once with acetone. Enzyme activity was measured by determining the bound radioactivity by liquid scintillation counting.

The next experiment concerns the target IRAK-4 (Homo sapiens (Human), UniProt Q9NWZ3). Kind of experiment: In vitro IRAK-4 kinase assay. To be noted: purified recombinant IRAK-4, 50 uM ATP, 33P peptide phosphorylation. Format: biochemical. In a few lines:
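Recombinant IRAK-4 or IRAK-1 incubated with 250 uM synthetic peptide in MOPS pH7.2 kinase buffer with 50 uM ATP, 20 mM MgCl2 and γ-33P ATP for the indicated time. Phosphorylated peptide captured on phosphocellulose, washed with phosphoric acid, quantified by scintillation counting.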

Sequence of IRAK-1 (P51617 whole entry, species assumed): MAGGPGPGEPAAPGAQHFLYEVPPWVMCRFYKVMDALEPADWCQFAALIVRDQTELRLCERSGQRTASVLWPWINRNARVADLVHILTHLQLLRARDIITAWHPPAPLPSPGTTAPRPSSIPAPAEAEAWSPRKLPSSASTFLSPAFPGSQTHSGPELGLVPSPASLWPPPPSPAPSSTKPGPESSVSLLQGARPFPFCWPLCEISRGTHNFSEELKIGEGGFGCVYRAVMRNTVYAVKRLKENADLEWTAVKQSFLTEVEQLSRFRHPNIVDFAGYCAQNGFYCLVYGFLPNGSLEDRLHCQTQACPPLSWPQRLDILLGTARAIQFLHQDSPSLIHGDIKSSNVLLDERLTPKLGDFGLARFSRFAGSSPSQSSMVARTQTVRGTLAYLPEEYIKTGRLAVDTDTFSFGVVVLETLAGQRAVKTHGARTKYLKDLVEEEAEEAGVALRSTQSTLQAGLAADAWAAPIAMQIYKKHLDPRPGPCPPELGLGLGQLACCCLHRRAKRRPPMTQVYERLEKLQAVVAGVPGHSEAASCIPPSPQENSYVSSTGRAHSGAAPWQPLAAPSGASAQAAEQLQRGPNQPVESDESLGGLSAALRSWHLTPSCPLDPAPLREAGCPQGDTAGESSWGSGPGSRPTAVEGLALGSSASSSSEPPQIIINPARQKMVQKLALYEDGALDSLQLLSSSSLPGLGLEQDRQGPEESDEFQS
Sequence of IRAK-4 (Q9NWZ3 whole entry, species assumed): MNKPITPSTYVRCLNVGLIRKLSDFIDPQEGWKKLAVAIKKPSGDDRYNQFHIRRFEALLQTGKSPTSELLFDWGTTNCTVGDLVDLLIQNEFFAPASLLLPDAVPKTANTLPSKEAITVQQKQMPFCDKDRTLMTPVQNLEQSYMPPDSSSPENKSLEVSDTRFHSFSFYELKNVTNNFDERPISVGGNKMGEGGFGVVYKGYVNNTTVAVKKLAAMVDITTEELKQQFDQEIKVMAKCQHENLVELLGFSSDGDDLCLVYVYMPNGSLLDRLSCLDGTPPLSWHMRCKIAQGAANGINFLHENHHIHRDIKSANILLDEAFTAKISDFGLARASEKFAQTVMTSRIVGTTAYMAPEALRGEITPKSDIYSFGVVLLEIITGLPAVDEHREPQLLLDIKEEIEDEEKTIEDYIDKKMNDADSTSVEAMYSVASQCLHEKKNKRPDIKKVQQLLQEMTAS

As for “2-(cis-2-amino-cyclohexylamino)-thieno[3,2-d]pyrimidine-7-carboxylic acid (2,4-dimethoxy-phenyl)-amide [Example 26]”, the negative logarithm of the IC50 (pIC50) at IRAK-1 was 6.33.

Turning to `COc1cc2ncccc2cc1NC(=O)c1csc2cnc(NCC(O)CO)nc12` (stereo not drawn) [Example 47, 2-(2,3-Dihydroxy-propylamino)-thieno[3,2-d]pyrimidine-7-carboxylic acid (7-methoxy-quinolin-6-yl)-amide], the pIC50 on IRAK-4 was 7.09; on IRAK-1, 6.22.

Consider `O=C(Nc1cc(Cl)ccc1N1CCC(CO)CC1)c1csc2cncnc12` [Example 49, Thieno[3,2-d]pyrimidine-7-carboxylic acid [5-chloro-2-(4-hydroxymethyl-piperidin-1-yl)-phenyl]-amide], for which the pIC50 is 7.00 at IRAK-4 and 6.15 on IRAK-1.

As for `NCC1CCN(c2ccc(Cl)cc2NC(=O)c2csc3cncnc23)CC1` [Example 64, Thieno[3,2-d]pyrimidine-7-carboxylic acid [2-(4-aminomethyl-piperidin-1-yl)-5-chloro-phenyl]-amide], the pIC50 on IRAK-4 was 6.78; at IRAK-1, 6.10.

`COc1ccccc1NC(=O)c1csc2cncnc12` [Example 169, Thieno[3,2-d]pyrimidine-7-carboxylic acid (2-methoxy-phenyl)-amide]: the pIC50 on IRAK-4 is 5.18.

On to `O=C(Nc1cc2cccnc2cc1OC1CCNCC1)c1csc2cncnc12` [Example 56, Thieno[3,2-d]pyrimidine-7-carboxylic acid [7-(piperidin-4-yloxy)-quinolin-6-yl]-amide hydrochloride], for which the negative logarithm of the IC50 (pIC50) at IRAK-4 was 6.90.

As for `COc1cc2cc[nH]c2cc1NC(=O)c1csc2cncnc12` [Example 102, Thieno[3,2-d]pyrimidine-7-carboxylic acid (5-methoxy-1H-indol-6-yl)-amide], the negative logarithm of the IC50 (pIC50) on IRAK-4 is 6.22.

Take `COc1ccc(Cl)cc1NC(=O)c1csc2cnc(NCCCO)nc12` [Example 126, 2-(3-Hydroxy-propylamino)-thieno[3,2-d]pyrimidine-7-carboxylic acid (5-chloro-2-methoxy-phenyl)-amide]: at IRAK-4, the pIC50 is 5.69.

In the case of `COc1ccc(Cl)cc1NC(=O)c1cnn2cccnc12` [Example 123, Pyrazolo[1,5-alpha]pyrimidine-3-carboxylic acid (5-chloro-2-methoxy-phenyl)-amide], the pIC50 on IRAK-4 is 5.79.

Take `O=C(Nc1cc(Cl)ccc1OC[C@H](O)CO)c1cnn2cccnc12` [Example 163, Pyrazolo[1,5-alpha]pyrimidine-3-carboxylic acid [5-chloro-2-(2,3-dihydroxy-propoxy)-phenyl]-amide]: the pIC50 at IRAK-4 was 5.33.

As to `O=C(Nc1cc(Cl)ccc1OC(F)F)c1cnn2cccnc12` [Example 107, Pyrazolo[1,5-alpha]pyrimidine-3-carboxylic acid (5-chloro-2-difluoromethoxy-phenyl)-amide], at IRAK-4, the pIC50 was 6.14.

For the compound `O=C(Nc1cc2ccccc2cc1OCCCO)c1cnn2cccnc12` [Example 80, Pyrazolo[1,5-alpha]pyrimidine-3-carboxylic acid [3-(3-hydroxy-propoxy)-naphthalen-2-yl]-amide], the negative-log IC50 (pIC50) on IRAK-4 is 6.49.

Take `CC(C)COc1ccc(Cl)cc1NC(=O)c1cnn2cccnc12` [Example 135, Pyrazolo[1,5-alpha]pyrimidine-3-carboxylic acid (5-chloro-2-isobutoxy-phenyl)-amide]: the negative logarithm of the IC50 (pIC50) at IRAK-4 was 5.64.

Regarding `COc1cc(-c2ccccc2)c(C)cc1NC(=O)c1cnn2cccnc12` [Example 167, Pyrazolo[1,5-alpha]pyrimidine-3-carboxylic acid (5-methoxy-2-methyl-biphenyl-4-yl)-amide], the pIC50 at IRAK-4 is 5.23.

With `O=C(Nc1cc(Cl)ccc1-c1ccccc1)c1cnn2cccnc12` [Example 100, Pyrazolo[1,5-alpha]pyrimidine-3-carboxylic acid (4-chloro-biphenyl-2-yl)-amide], on IRAK-4, the pIC50 is 6.27.

In the case of `CC(C)Oc1ccc(Cl)cc1NC(=O)c1csc2cncnc12` [Example 74, Thieno[3,2-d]pyrimidine-7-carboxylic acid (5-chloro-2-isopropoxy-phenyl)-amide], the negative-log IC50 (pIC50) at IRAK-4 was 6.54.

In the case of `COc1cnc2c(C(=O)Nc3cc(Cl)ccc3N3CCC(CN)CC3)cnn2c1` [Example 71, 6-Methoxy-pyrazolo[1,5-alpha]pyrimidine-3-carboxylic acid [2-(4-aminomethyl-piperidin-1-yl)-5-chloro-phenyl]-amide], the pIC50 on IRAK-4 was 6.60.

For `O=C(Nc1cc(Cl)ccc1OC[C@@H](O)CO)c1cnn2cccnc12` [Example 137, Pyrazolo[1,5-alpha]pyrimidine-3-carboxylic acid [5-chloro-2-(2,3-dihydroxy-propoxy)-phenyl]-amide], the pIC50 at IRAK-4 was 5.64.

Take `COc1ccc(Cl)cc1NC(=O)c1csc2cncnc12` [Example 128, Thieno[3,2-d]pyrimidine-7-carboxylic acid (5-chloro-2-methoxy-phenyl)-amide]: the pIC50 at IRAK-4 is 5.66.

In the case of `COc1cc(C(=O)NCCCO)ccc1NC(=O)c1cnn2cccnc12` [Example 105, Pyrazolo[1,5-alpha]pyrimidine-3-carboxylic acid [4-(3-hydroxy-propylcarbamoyl)-2-methoxy-phenyl]-amide], the pIC50 on IRAK-4 is 6.19.

For `NC(=O)c1cnc2c(C(=O)Nc3cc(Cl)ccc3OC3CCC(O)CC3)cnn2c1` (stereo not drawn) [Example 52, Pyrazolo[1,5-alpha]pyrimidine-3,6-dicarboxylic acid 6-amide-3-{[5-chloro-2-(4-hydroxy-cyclohexyloxy)-phenyl]-amide}], the pIC50 on IRAK-4 was 6.97.

For `O=C1Cc2cc(N3CCCCC3)c(NC(=O)c3cnn4cccnc34)cc2N1` [Example 48, Pyrazolo[1,5-alpha]pyrimidine-3-carboxylic acid (2-oxo-5-piperidin-1-yl-2,3-dihydro-1H-indol-6-yl)-amide], the pIC50 at IRAK-4 was 7.01.

In the case of `COc1ccc(Cl)cc1NC(=O)c1csc2cnc(N(C)CCN)nc12` [Example 86, 2-[(2-Amino-ethyl)-methyl-amino]-thieno[3,2-d]pyrimidine-7-carboxylic acid (5-chloro-2-methoxy-phenyl)-amide], the negative-log IC50 (pIC50) on IRAK-4 was 6.36.

Consider `COc1cc2ncccc2cc1NC(=O)c1csc2cnc(NCC(C)C)nc12` [Example 73, 2-Isobutylamino-thieno[3,2-d]pyrimidine-7-carboxylic acid (7-methoxy-quinolin-6-yl)-amide], for which the pIC50 on IRAK-4 was 6.57.

Turning to `NC(=O)c1cnc2c(C(=O)Nc3cc(Cl)ccc3O[C@H]3CC[C@@H](O)CC3)cnn2c1` [Example 67, Pyrazolo[1,5-alpha]pyrimidine-3,6-dicarboxylic acid 6-amide 3-{[5-chloro-2-(4-hydroxy-cyclohexyloxy)-phenyl]-amide}], at IRAK-4, the pIC50 was 6.69.

Consider `NC1CCN(c2ccc(Cl)cc2NC(=O)c2cnn3cccnc23)CC1` [Example 70, Pyrazolo[1,{tildeover (5)}-alpha] pyrimidine-3-carboxylic acid [2-(4-amino-piperidin-1-yl)-5-chloro-phenyl]-amide], for which, at IRAK-4, the pIC50 was 6.60.

Take `NC1CCN(c2ccc(Cl)cc2NC(=O)c2cnn3cccnc23)C1` (stereo not drawn) [Example 109, Pyrazolo[1,5-alpha]pyrimidine-3-carboxylic acid [2-(3-amino-pyrrolidin-1-yl)-5-chloro-phenyl]-amide]: on IRAK-4, the negative logarithm of the IC50 (pIC50) is 6.12.
